In ChEMBL document CHEMBL4007391, “Tackling Fungal Resistance by Biofilm Inhibitors” (J Med Chem, 2017) one finds CC50, IC50 and MBIC50 data, which are given here for 22 molecules.

Counter-ions that a name gives are not always drawn.

Data set [1] is described as follows: Cytotoxicity against human HepG2 assessed as reduction in cell viability after 24 hrs by CellTiter-Glo luminescent assay. In kind it is cell-based. Particulars: HepG2 cells. A general note: In ATP-based viability assays light output follows the ATP content of the culture.
Data set [2] relates to Candida albicans. The data set is described as follows: Antibiofilm activity against Candida albicans SC5314 after 24 hrs by XTT assay. Particulars: SC5314, 24 h. Type of data set: functional.
Data set [3] has as its system Candida albicans. The data set is described as follows: Antibiofilm activity against Candida albicans SC5314 clinical isolates after 24 hrs by XTT assay. Type of data set: functional. (In general: Tetrazolium assays rely on reduction of a dye to a coloured formazan, in cell work by metabolically active cells.)
For data set [4], the system named is Candida albicans. The data set is described as follows: Antibiofilm activity against Candida albicans CAIF-100 after 24 hrs by Cell-Titer Blue assay. Type of data set: functional.

The term CC50 denotes the concentration giving 50% cytotoxicity. As usually defined, the IC50 is the midpoint of a concentration-inhibition curve. Higher therefore signals lower potency.

Turning to `Nc1cc(S(N)(=O)=O)ccc1SSc1ccc(S(N)(=O)=O)cc1N`, in data set [1], the CC50 at 24 h was determined as 106 µM. The molecule also yielded a half-maximal inhibitory concentration (IC50) with Candida albicans [2] of 3.45 µM.
Take `CC1OC(CC(=O)O)Cc2c(O)c3c(c(O)c21)C(=O)C=C(C1=CC(=O)c2c(O)c4c(c(O)c2C1=O)CC(CC(=O)O)OC4C)C3=O` (centres undefined): in data set [1], the CC50 at 24 h stood at 96.1 µM. In the data set on Candida albicans [2], 3.31 µM corresponded to half-maximal inhibition (IC50).
`Cc1cc(OCCOCC[N+](C)(C)Cc2ccccc2)ccc1C(C)(C)CC(C)(C)C` returned a half-maximal inhibitory concentration (IC50) with Candida albicans [3] (Candida albicans, SC5314, 24 h) of 8.9 µM.
In the case of `Cc1c(CN2CCC3(CCCN(Cc4ccc(C(C)C)cc4)C3=O)C2)cnn1C` (centres undefined), the CC50 at 24 h in data set [1] was 62.7 to 104 µM. The concentration for half-maximal inhibition (IC50) in the data set on Candida albicans [2] was found to be 3.15 µM.
In the data set on Candida albicans [3] (Candida albicans, SC5314, 24 h), `CC[C@@]1([C@@H]2O[C@@H]([C@H]3O[C@@](O)(CO)[C@H](C)C[C@@H]3C)C[C@@H]2C)CC[C@H]([C@]2(C)CCC3(C[C@H](O)[C@@H](C)[C@@H]([C@@H](C)[C@@H](OC)[C@H](C)C(=O)O)O3)O2)O1` (some centres undefined) gave an IC50 of 6.4 µM.
On to `CC(C)c1ccc(CN2CCCC3(CCN(CC4CCSCC4)C3)C2=O)cc1` (centres undefined), for which the CC50 at 24 h in data set [1] lay in the range of 62.7 to 104 µM. The IC50 in the data set with Candida albicans [2] amounted to 3.36 µM.
`CC[C@H](C)[C@H](N)C1=N[C@H](C(=O)N[C@@H](CC(C)C)C(=O)N[C@H](CCC(=O)O)C(=O)N[C@@H](C(=O)N[C@@H]2CCCCNC(=O)[C@H](CC(N)=O)NC(=O)[C@@H](CC(=O)O)NC(=O)[C@H](Cc3cnc[nH]3)NC(=O)[C@@H](Cc3ccccc3)NC(=O)[C@H]([C@@H](C)CC)NC(=O)[C@@H](CCCN)NC2=O)[C@@H](C)CC)CS1`: the CC50 at 24 h in data set [1] amounted to 286 µM. In the data set with Candida albicans [2], it took 2.13 µM to reach half-maximal inhibition (IC50).
Molecule `CC[C@H](C)C1NC(=O)[C@@H](CCCN)NC(=O)[C@@H](NC(=O)[C@@H](NC(=O)[C@@H](CCC(=O)O)NC(=O)[C@H](CC(C)C)NC(=O)[C@@H]2CSC([C@@H](N)[C@@H](C)CC)=N2)[C@@H](C)CC)CCCCNC(=O)[C@H](CC(N)=O)NC(=O)[C@@H](CC(=O)O)NC(=O)[C@H](Cc2c[nH]cn2)NC(=O)[C@@H](Cc2ccccc2)NC1=O` (some centres undefined) came in with an IC50 in the data set with Candida albicans [3] (Candida albicans, SC5314, 24 h) of 17 µM.
As to `CC(C)c1ccc(CN2CCCC3(CCN(Cc4cccnc4)C3)C2=O)cc1` (centres undefined), the CC50 at 24 h in data set [1] fell in the range of 62.7 to 104 µM. Further, the IC50 in the data set with Candida albicans [2] is 4.59 µM.
In the case of `Cc1ncc(CN2CCC3(CCCN(Cc4ccc(C(C)C)cc4)C3=O)C2)cn1` (centres undefined), the CC50 at 24 h in data set [1] was 62.7 to 104 µM. The molecule further returned a concentration for half-maximal inhibition (IC50) with Candida albicans [2] of 2.7 µM.
For the molecule `CCCCC(CC)CNC(=N)NC(=N)NCCCCCCNC(=N)NC(=N)NCC(CC)CCCC` (centres undefined) [ALEXIDINE DIHYDROCHLORIDE], in the data set with Candida albicans [3] (Candida albicans, SC5314, 24 h), the half-inhibitory concentration (IC50) was 5.4 µM.
The same measure, in the same setting: to `CCc1oc2ccccc2c1C(=O)c1cc(Br)c(O)c(Br)c1` [BENZBROMARONE] belongs 2 µM; to `N=C(NCCCCCCNC(=N)NC(=N)Nc1ccc(Cl)cc1)NC(=N)Nc1ccc(Cl)cc1` [CHLORHEXIDINE], 21.8 µM.
In turn, `CN(C)CC/C=C1/c2ccccc2Sc2ccc(Cl)cc21.Cl` [CHLORPROTHIXENE HYDROCHLORIDE] registered an MBIC50 with Candida albicans [4] of 17 µM.
Consider `Oc1c(I)cc(Cl)c2cccnc12` [CLIOQUINOL], for which, in the data set with Candida albicans [3] (Candida albicans, SC5314, 24 h), the IC50 amounted to 2.6 µM.
The molecule `C#CCN(C)CCCOc1ccc(Cl)cc1Cl.Cl` [CLORGYLINE HYDROCHLORIDE] displayed an MBIC50 with Candida albicans [4] of 24 µM.
`O=C1c2cccc(O)c2C(=O)c2c(O)cccc21` [DANTHRON] registered an MBIC50 with Candida albicans [4] of 12 µM.
The molecule `CCN(CC)CCOC(=O)C1(C2CCCCC2)CCCCC1.Cl` [DICYCLOMINE HYDROCHLORIDE] displayed an MBIC50 with Candida albicans [4] of 60 µM.
In the data set with Candida albicans [4], `C1CCC(C(CC2CCCCN2)C2CCCCC2)CC1.O=C(O)/C=C\C(=O)O` (centres undefined) [PERHEXILINE MALEATE] yielded an MBIC50 of 39 µM.
As for `CCCCCCCCCCCCCCCC[N+](C)(C)CCN(Cc1ccc(OC)cc1)c1ncccn1` [THONZONIUM BROMIDE], the IC50 with Candida albicans [3] (Candida albicans, SC5314, 24 h) was 13 µM.
For `CN(C)CCOc1ccc(/C(=C(/CCCl)c2ccccc2)c2ccccc2)cc1.O=C(O)CC(O)(CC(=O)O)C(=O)O` [TOREMIFENE CITRATE], the MBIC50 in the data set with Candida albicans [4] is 19.5 µM.
Turning to THIMEROSAL, in the data set with Candida albicans [3], half-maximal inhibition (IC50) required 0.2 µM.
